Where two headings read alike, the source gives them in different places. Numbered stars: 1 amine (or outer) side, 2 acyl side, 3 side chain; on linkers, the order of the positions; unused ones are H or OH. Bridge positions count the residues as written; N and C are the ends. Square brackets hold non-standard residues; d marks the D form. Peptide text beside a SMILES is read from it. * marks the point of attachment. C20 diacid = O=C(O)CCCCCCCCCCCCCCCCCCC(=O)*; γGlu = O=C(O)[C@H](CCC(=O)[*:2])N[*:1]; NMeI = CC[C@H](C)[C@H](NC)C(=O)O; Dap = NC[C@H](N)C(=O)O; Sar = CNCC(=O)O
Tests used:
[1] = molecular target: T1, human calcitonin receptor (hCTR2) (Homo sapiens, UniProt P30988); experiment: hCTR2 assay: induction of cAMP (AlphaScreen cAMP Assay kit) in COS7 cells expressing hCTR2; assay type: cell-based
T1 construct: expressed in transfected cells
T1 sequence (P30988 25-474): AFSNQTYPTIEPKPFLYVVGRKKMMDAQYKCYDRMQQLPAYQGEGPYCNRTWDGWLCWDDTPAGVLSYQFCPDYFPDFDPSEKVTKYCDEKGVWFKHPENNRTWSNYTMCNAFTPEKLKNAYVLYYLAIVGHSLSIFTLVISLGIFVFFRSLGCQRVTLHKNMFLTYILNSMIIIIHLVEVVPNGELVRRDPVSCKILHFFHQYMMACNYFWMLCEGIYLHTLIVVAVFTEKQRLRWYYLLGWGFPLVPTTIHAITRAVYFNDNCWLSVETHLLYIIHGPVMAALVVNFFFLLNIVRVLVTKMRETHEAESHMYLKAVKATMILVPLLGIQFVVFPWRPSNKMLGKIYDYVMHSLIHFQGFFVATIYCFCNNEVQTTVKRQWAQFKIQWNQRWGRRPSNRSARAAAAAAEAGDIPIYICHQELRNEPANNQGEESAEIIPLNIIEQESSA
Summary of the method: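 cAMP read-out by AlphaScreen after cell lysis; EC50 and % efficacy vs pramlintide from 4-parameter logistic fitting. Agonist stimulation: hCTR2-COS7 stable cells, 15 min, 37° C, 100 µM IBMX, 0.1% casein, Tyrode/HEPES pH 7.4.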

[2] = Solubility assessment (turbidity absorbance at 325 nm); assay type: physicochemical; conditions: stock 2 mg/ml diluted 1:1, ambient temperature (typically 25°C), n=1; for Solubility, Acetate buffer pH 4: 100 mM acetate buffer pH 4.0; for Solubility, Acetate buffer pH 5: 100 mM acetate buffer pH 5.0; for Solubility, Histidine buffer pH 6: 100 mM histidine buffer pH 6.0; for Solubility, Histidine buffer pH 7: 100 mM histidine buffer pH 7.0; for Solubility, Phosphate buffer pH 6: 100 mM phosphate buffer pH 6.0; for Solubility, Phosphate buffer pH 7: 100 mM phosphate buffer pH 7.0; for Solubility, Phosphate buffer pH 7.5: 100 mM phosphate buffer pH7.5
Summary of the method: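 Turbidity read as absorbance at 325 nm (also 280 nm), single samples at ambient temperature (typically 25°C); ≤ 0.02 units counts as ≥ 1 mg/ml soluble. Samples made by 1:1 dilution of a 2 mg/ml acidic stock into 100 mM acetate, histidine or phosphate buffers, pH 4.0–7.5.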

[3] = cAMP induction in COS7 cells expressing hCTR2, average of a minimum of 3 determinations, read-out: hCTR2 EC50

Row | SMILES | EC50 [1] | Solubility, Acetate buffer pH 4 [2] | Solubility, Acetate buffer pH 5 [2] | Solubility, Histidine buffer pH 6 [2] | Solubility, Histidine buffer pH 7 [2] | Solubility, Phosphate buffer pH 6 [2] | Solubility, Phosphate buffer pH 7 [2] | Solubility, Phosphate buffer pH 7.5 [2] | EC50 [1, 3]
1 | CC[C@H](C)[C@@H](C(=O)N[C@@H](CC(C)C)C(=O)N[C@H](CO)C(=O)N[C@@H](CO)C(=O)N[C@H](C(=O)N[C@@H](CC(N)=O)C(=O)N[C@H](C(=O)NCC(=O)N[C@@H](CO)C(=O)N[C@@H](CC(N)=O)C(=O)N[C@H](C(=O)N1CCC[C@H]1C(N)=O)[C@@H](C)O)C(C)C)[C@@H](C)O)N(C)C(=O)[C@H](C)NC(=O)CN(C)C(=O)[C@H](Cc1ccccc1)NC(=O)[C@H](CC(N)=O)NC(=O)[C@H](CC(N)=O)NC(=O)[C@H](CO)NC(=O)[C@H](CO)NC(=O)[C@H](CCCNC(=N)N)NC(=O)[C@H](Cc1c[nH]cn1)NC(=O)[C@H](CC(C)C)NC(=O)[C@H](Cc1ccccc1)NC(=O)[C@H](CCC(=O)O)NC(=O)[C@H](C)NC(=O)[C@H](CC(C)C)NC(=O)[C@H](CCCNC(=N)N)NC(=O)[C@H](CCC(N)=O)NC(=O)[C@@H](NC(=O)[C@H](C)NC(=O)[C@@H]1CSSC[C@H](NC(=O)[C@H](CCCCN)NC(=O)CC[C@H](NC(=O)CCCCCCCCCCCCCCCCCCC(=O)O)C(=O)O)C(=O)N[C@@H](CC(N)=O)C(=O)N[C@@H]([C@@H](C)O)C(=O)N[C@@H](C)C(=O)N[C@@H]([C@@H](C)O)C(=O)N1)[C@@H](C)O [Compound 68, [19CD]-isoGlu-KC()NTATC()ATQRLAEFLHRSSNNF-Gly(Me)-A-Ile(Me)-L-DSer-STNVGSNTP-NH2] ({C20 diacid-γGlu}-KCNTATCATQRLAEFLHRSSNNF[Sar]A[NMeI]L[dS]STNVGSNTP-NH2; disulfide 2-7) | 0.096 nM | SS (SS indicates solubility ≥ 1mg/ml) | SS (SS indicates solubility ≥ 1mg/ml) | SS (SS indicates solubility ≥ 1mg/ml) | SS (SS indicates solubility ≥ 1mg/ml) | SS (SS indicates solubility ≥ 1mg/ml) | SS (SS indicates solubility ≥ 1mg/ml) | SS (SS indicates solubility ≥ 1mg/ml) | 
2 | CC[C@H](C)[C@@H](C(=O)N[C@@H](CC(C)C)C(=O)N[C@@H](CO)C(=O)N[C@@H](CO)C(=O)N[C@H](C(=O)N[C@@H](CC(N)=O)C(=O)N[C@H](C(=O)NCC(=O)N[C@@H](CO)C(=O)N[C@@H](CC(N)=O)C(=O)N[C@H](C(=O)N1CCC[C@H]1C(N)=O)[C@@H](C)O)C(C)C)[C@@H](C)O)N(C)C(=O)CN(C)C(=O)[C@H](Cc1ccccc1)NC(=O)[C@H](CC(N)=O)NC(=O)[C@H](CC(N)=O)NC(=O)[C@H](CO)NC(=O)[C@H](CO)NC(=O)[C@H](Cc1c[nH]cn1)NC(=O)[C@H](Cc1c[nH]cn1)NC(=O)[C@H](CC(C)C)NC(=O)[C@H](Cc1ccccc1)NC(=O)[C@H](CCC(=O)O)NC(=O)[C@H](C)NC(=O)[C@H](CC(C)C)NC(=O)[C@H](CCCNC(=N)N)NC(=O)[C@H](CCC(N)=O)NC(=O)[C@@H](NC(=O)[C@H](C)NC(=O)[C@@H]1CSSC[C@H](NC(=O)[C@H](CN)NC(=O)CC[C@H](NC(=O)CCCCCCCCCCCCCCCCCCC(=O)O)C(=O)O)C(=O)N[C@@H](CC(N)=O)C(=O)N[C@@H]([C@@H](C)O)C(=O)N[C@@H](C)C(=O)N[C@@H]([C@@H](C)O)C(=O)N1)[C@@H](C)O [Compound 69, [19CD]-isoGlu-Dap-C()NTATC()ATQRLAEFLHHSSNNF-Gly(Me)-Ile(Me)-LSSTNVGSNTP-NH2] ({C20 diacid-γGlu}-[Dap]CNTATCATQRLAEFLHHSSNNF[Sar][NMeI]LSSTNVGSNTP-NH2; disulfide 2-7) |  | SS (SS indicates solubility ≥ 1mg/ml) | SS (SS indicates solubility ≥ 1mg/ml) | SS (SS indicates solubility ≥ 1mg/ml) | SS (SS indicates solubility ≥ 1mg/ml) | SS (SS indicates solubility ≥ 1mg/ml) | SS (SS indicates solubility ≥ 1mg/ml) | SS (SS indicates solubility ≥ 1mg/ml) | 0.24 nM
3 | CC[C@H](C)[C@@H](C(=O)N[C@@H](CC(C)C)C(=O)N[C@H](CO)C(=O)N[C@@H](CO)C(=O)N[C@H](C(=O)N[C@@H](CC(N)=O)C(=O)N[C@H](C(=O)NCC(=O)N[C@@H](CO)C(=O)N[C@@H](CC(N)=O)C(=O)N[C@H](C(=O)N1CCC[C@H]1C(N)=O)[C@@H](C)O)C(C)C)[C@@H](C)O)N(C)C(=O)CN(C)C(=O)[C@H](Cc1ccccc1)NC(=O)[C@H](CC(N)=O)NC(=O)[C@H](CC(N)=O)NC(=O)[C@H](CO)NC(=O)[C@H](CO)NC(=O)[C@H](CCCNC(=N)N)NC(=O)[C@H](Cc1c[nH]cn1)NC(=O)[C@H](CC(C)C)NC(=O)[C@H](Cc1ccccc1)NC(=O)[C@H](CCC(=O)O)NC(=O)[C@H](C)NC(=O)[C@H](CC(C)C)NC(=O)[C@H](CCCNC(=N)N)NC(=O)[C@H](CCC(N)=O)NC(=O)[C@@H](NC(=O)[C@H](C)NC(=O)[C@@H]1CSSC[C@H](NC(=O)[C@H](CCCCN)NC(=O)CC[C@H](NC(=O)CCCCCCCCCCCCCCCCCCC(=O)O)C(=O)O)C(=O)N[C@@H](CC(N)=O)C(=O)N[C@@H]([C@@H](C)O)C(=O)N[C@@H](C)C(=O)N[C@@H]([C@@H](C)O)C(=O)N1)[C@@H](C)O [Compound 70, [19CD]-isoGlu-KC()NTATC()ATQRLAEFLHRSSNNF-Gly(Me)-Ile(Me)-L-DSer-STNVGSNTP-NH2] ({C20 diacid-γGlu}-KCNTATCATQRLAEFLHRSSNNF[Sar][NMeI]L[dS]STNVGSNTP-NH2; disulfide 2-7) |  | SS (SS indicates solubility ≥ 1mg/ml) | SS (SS indicates solubility ≥ 1mg/ml) | SS (SS indicates solubility ≥ 1mg/ml) | SS (SS indicates solubility ≥ 1mg/ml) | SS (SS indicates solubility ≥ 1mg/ml) | SS (SS indicates solubility ≥ 1mg/ml) | SS (SS indicates solubility ≥ 1mg/ml) | 0.11 nM
4 | CC[C@H](C)[C@@H](C(=O)N[C@@H](CC(C)C)C(=O)N[C@@H](CO)C(=O)N[C@@H](CO)C(=O)N[C@H](C(=O)N[C@@H](CC(N)=O)C(=O)N[C@H](C(=O)NCC(=O)N[C@@H](CO)C(=O)N[C@@H](CC(N)=O)C(=O)N[C@H](C(=O)N1CCC[C@H]1C(N)=O)[C@@H](C)O)C(C)C)[C@@H](C)O)N(C)C(=O)[C@H](C)NC(=O)CN(C)C(=O)[C@@H](Cc1ccccc1)NC(=O)[C@H](CC(N)=O)NC(=O)[C@H](CC(N)=O)NC(=O)[C@H](CO)NC(=O)[C@H](CO)NC(=O)[C@H](CCCNC(=N)N)NC(=O)[C@H](Cc1c[nH]cn1)NC(=O)[C@H](CC(C)C)NC(=O)[C@H](Cc1ccccc1)NC(=O)[C@H](CCC(=O)O)NC(=O)[C@H](C)NC(=O)[C@H](CC(C)C)NC(=O)[C@H](CCCNC(=N)N)NC(=O)[C@H](CCC(N)=O)NC(=O)[C@@H](NC(=O)[C@H](C)NC(=O)[C@@H]1CSSC[C@H](NC(=O)[C@H](CCCCN)NC(=O)CC[C@H](NC(=O)CCCCCCCCCCCCCCCCCCC(=O)O)C(=O)O)C(=O)N[C@@H](CC(N)=O)C(=O)N[C@@H]([C@@H](C)O)C(=O)N[C@@H](C)C(=O)N[C@@H]([C@@H](C)O)C(=O)N1)[C@@H](C)O [Compound 71, [19CD]-isoGlu-KC()NTATC()ATQRLAEFLHRSSNN-DPhe-Gly(Me)-A-Ile(Me)-LSSTNVGSNTP-NH2] ({C20 diacid-γGlu}-KCNTATCATQRLAEFLHRSSNN[dF][Sar]A[NMeI]LSSTNVGSNTP-NH2; disulfide 2-7) | 0.068 nM | SS (SS indicates solubility ≥ 1mg/ml) | SS (SS indicates solubility ≥ 1mg/ml) | SS (SS indicates solubility ≥ 1mg/ml) | SS (SS indicates solubility ≥ 1mg/ml) | SS (SS indicates solubility ≥ 1mg/ml) | SS (SS indicates solubility ≥ 1mg/ml) | SS (SS indicates solubility ≥ 1mg/ml) | 
